Test results as given in paper PMC12524486, “Characterization of α-L-Rhamnosidase and β-D-Glucosidase Subunits of Naringinase Immobilized on a Magnetic Polysaccharide Carrier” (International Journal of Molecular Sciences, 2025).

Assays:
[1] = tested on: T1, β-D-glucosidase subunit of free naringinase from A. niger KMS; experiment: p-nitrophenol release at […] nm, initial rates, Lineweaver-Burk; type: biochemical, Aspergillus niger; settings: free enzyme (crude naringinase preparation), 0.1 M buffer pH 4.0, 50 °C, substrate 0.4-1.5 mM
T1 construct: gene beta-D-glucosidase; native secreted enzyme in a crude naringinase preparation (culture fluid ultrafiltered, acetone precipitated)

[2] = tested on: T2, α-L-rhamnosidase subunit of free naringinase from A. niger KMS; experiment: as above; type: biochemical, Aspergillus niger; settings: free enzyme (crude naringinase preparation), 0.1 M buffer pH 4.0, 50 °C, substrate 0.4-1.5 mM
T2 construct: gene alpha-L-rhamnosidase; native secreted enzyme in a crude naringinase preparation (culture fluid ultrafiltered, acetone precipitated)

Compound: O=[N+]([O-])c1ccc(O[C@@H]2O[C@H](CO)[C@@H](O)[C@H](O)[C@H]2O)cc1 [pNPG, 4-nitrophenyl β-D-glucopyranoside]
- Km [1]: 2720 ± 78 µM

Compound: C[C@@H]1O[C@@H](Oc2ccc([N+](=O)[O-])cc2)[C@H](O)[C@H](O)[C@H]1O [pNPR, 4-nitrophenyl α-L-rhamnopyranoside]
- Km [2]: 2080 ± 35.5 µM
